Source: ChEMBL document CHEMBL1132828, “Pharmacophore identification of a specific CXCR4 inhibitor, T140, leads to development of effective anti-HIV agents with very high selectivity indexes” (Bioorg Med Chem Lett, 2000)
Where a SMILES comes first, the peptide text is derived from it. Bridges are numbered along the chain shown (N, C = ends). [ ]: non-standard residue; d: D form. 2Nal = N[C@@H](Cc1ccc2ccccc2c1)C(=O)O; Cit = NC(=O)NCCC[C@H](N)C(=O)O

Experiments:
MT4 [1] = assay: Compound was tested for reduction of the viability of mock infected MT-4 cell in test-I; assay type: functional; conditions: Homo sapiens
MT4 [2] = assay: Compound was tested for reduction of the viability of mock infected MT-4 cell in test-II; assay type: functional; conditions: Homo sapiens
[3] = Ratio of cytotoxic concentration (CC50) in test-I to that of EC50 of compound; assay type: functional, Homo sapiens
[4] = Ratio of cytotoxic concentration (CC50) in test-II to that of EC50 of compound; assay type: functional, Homo sapiens

Row | Compound | CC50 (MT4 [1]) | CC50 (MT4 [2]) | Ratio [3] | Ratio [4]
1 | NCCCC[C@@H]1NC(=O)[C@H](CCCN=C(N)N)NC(=O)[C@H](Cc2ccc(O)cc2)NC(=O)[C@@H](NC(=O)[C@H](Cc2ccc3ccccc3c2)NC(=O)[C@H](CCCN=C(N)N)NC(=O)[C@@H](N)CCCN=C(N)N)CSSC[C@@H](C(=O)N[C@@H](CCCN=C(N)N)C(=O)O)NC(=O)[C@H](CCCNC(N)=O)NC(=O)[C@H](CCCN=C(N)N)NC(=O)[C@H](Cc2ccc(O)cc2)NC(=O)[C@@H]2CCCN2C(=O)[C@@H](CCCCN)NC1=O (H-RR[2Nal]CYRK[dK]PYR[Cit]CR-OH; disulfide 4-13) | > 1 µM | 96 µM | >>300 | 29000
2 | C[C@H]1NC(=O)[C@H](CCCCN)NC(=O)[C@H](CCCN=C(N)N)NC(=O)[C@H](Cc2ccc(O)cc2)NC(=O)[C@@H](NC(=O)[C@H](Cc2ccc3ccccc3c2)NC(=O)[C@H](CCCN=C(N)N)NC(=O)[C@@H](N)CCCN=C(N)N)CSSC[C@@H](C(=O)N[C@@H](CCCN=C(N)N)C(=O)O)NC(=O)[C@H](CCCNC(N)=O)NC(=O)[C@H](CCCN=C(N)N)NC(=O)[C@H](Cc2ccc(O)cc2)NC(=O)[C@@H]2CCCN2C1=O | > 80 µM | – | >5200 | –
3 | C[C@@H]1NC(=O)[C@H](CCCN=C(N)N)NC(=O)[C@H](Cc2ccc(O)cc2)NC(=O)[C@@H](NC(=O)[C@H](Cc2ccc3ccccc3c2)NC(=O)[C@H](CCCN=C(N)N)NC(=O)[C@@H](N)CCCN=C(N)N)CSSC[C@@H](C(=O)N[C@@H](CCCN=C(N)N)C(=O)O)NC(=O)[C@H](CCCNC(N)=O)NC(=O)[C@H](CCCN=C(N)N)NC(=O)[C@H](Cc2ccc(O)cc2)NC(=O)[C@@H]2CCCN2C(=O)[C@@H](CCCCN)NC1=O | > 80 µM | – | >1800 | –
4 | C[C@@H]1NC(=O)[C@H](Cc2ccc(O)cc2)NC(=O)[C@@H]2CCCN2C(=O)[C@@H](CCCCN)NC(=O)[C@H](CCCCN)NC(=O)[C@H](CCCN=C(N)N)NC(=O)[C@H](Cc2ccc(O)cc2)NC(=O)[C@@H](NC(=O)[C@H](Cc2ccc3ccccc3c2)NC(=O)[C@H](CCCN=C(N)N)NC(=O)[C@@H](N)CCCN=C(N)N)CSSC[C@@H](C(=O)N[C@@H](CCCN=C(N)N)C(=O)O)NC(=O)[C@H](CCCNC(N)=O)NC1=O | > 80 µM | – | >4800 | –
5 | CC(N)C(=O)N[C@@H](CCCN=C(N)N)C(=O)N[C@@H](Cc1ccc2ccccc2c1)C(=O)N[C@H]1CSSC[C@@H](C(=O)N[C@@H](CCCN=C(N)N)C(=O)O)NC(=O)[C@H](CCCNC(N)=O)NC(=O)[C@H](CCCN=C(N)N)NC(=O)[C@H](Cc2ccc(O)cc2)NC(=O)[C@@H]2CCCN2C(=O)[C@@H](CCCCN)NC(=O)[C@H](CCCCN)NC(=O)[C@H](CCCN=C(N)N)NC(=O)[C@H](Cc2ccc(O)cc2)NC1=O (stereo not given in full) | > 40 µM | – | >750 | –
6 | NCCCC[C@@H]1NC(=O)[C@H](CCCN=C(N)N)NC(=O)[C@H](Cc2ccc(O)cc2)NC(=O)[C@@H](NC(=O)[C@H](Cc2ccc3ccccc3c2)NC(=O)[C@H](CCCN=C(N)N)NC(=O)[C@@H](N)CCCNC(N)=O)CSSC[C@@H](C(=O)N[C@@H](CCCN=C(N)N)C(=O)O)NC(=O)[C@H](CCCNC(N)=O)NC(=O)[C@H](CCCN=C(N)N)NC(=O)[C@H](Cc2ccc(O)cc2)NC(=O)[C@@H]2CCCN2C(=O)[C@@H](CCCCN)NC1=O | > 80 µM | 280 µM | >5300 | 18000
7 | NCCCC[C@@H]1NC(=O)[C@H](CCCN=C(N)N)NC(=O)[C@H](Cc2ccc(O)cc2)NC(=O)[C@@H](NC(=O)[C@H](Cc2ccc3ccccc3c2)NC(=O)[C@H](CCCN=C(N)N)NC(=O)[C@@H](N)CCCN=C(N)N)CSSC[C@@H](C(=O)N[C@@H](CCCN=C(N)N)C(=O)O)NC(=O)[C@H](CCCNC(N)=O)NC(=O)[C@H](CCCN=C(N)N)NC(=O)[C@H](Cc2ccc(O)cc2)NC(=O)[C@@H]2CCCN2C(=O)[C@@H](CCCNC(N)=O)NC1=O | > 80 µM | 280 µM | >20000 | 69000
8 | C[C@H](NC(=O)[C@H](CCCN=C(N)N)NC(=O)[C@@H](N)CCCN=C(N)N)C(=O)N[C@H]1CSSC[C@@H](C(=O)N[C@@H](CCCN=C(N)N)C(=O)O)NC(=O)[C@H](CCCNC(N)=O)NC(=O)[C@H](CCCN=C(N)N)NC(=O)[C@H](Cc2ccc(O)cc2)NC(=O)[C@@H]2CCCN2C(=O)[C@@H](CCCCN)NC(=O)[C@H](CCCCN)NC(=O)[C@H](CCCN=C(N)N)NC(=O)[C@H](Cc2ccc(O)cc2)NC1=O | > 80 µM | – | >34 | –
9 | NCCCC[C@@H]1NC(=O)[C@H](CCCN=C(N)N)NC(=O)[C@H](Cc2ccc(O)cc2)NC(=O)[C@@H](NC(=O)[C@H](Cc2ccc3ccccc3c2)NC(=O)[C@H](CCCNC(N)=O)NC(=O)[C@@H](N)CCCN=C(N)N)CSSC[C@@H](C(=O)N[C@@H](CCCN=C(N)N)C(=O)O)NC(=O)[C@H](CCCNC(N)=O)NC(=O)[C@H](CCCN=C(N)N)NC(=O)[C@H](Cc2ccc(O)cc2)NC(=O)[C@@H]2CCCN2C(=O)[C@@H](CCCCN)NC1=O | > 80 µM | 260 µM | >180 | 570
10 | C[C@H](NC(=O)[C@@H]1CSSC[C@H](NC(=O)[C@H](Cc2ccc3ccccc3c2)NC(=O)[C@H](CCCN=C(N)N)NC(=O)[C@@H](N)CCCN=C(N)N)C(=O)N[C@@H](Cc2ccc(O)cc2)C(=O)N[C@@H](CCCN=C(N)N)C(=O)N[C@@H](CCCCN)C(=O)N[C@H](CCCCN)C(=O)N2CCC[C@H]2C(=O)N[C@@H](Cc2ccc(O)cc2)C(=O)N[C@@H](CCCN=C(N)N)C(=O)N[C@@H](CCCNC(N)=O)C(=O)N1)C(=O)O | > 80 µM | – | >210 | –
11 | NCCCC[C@@H]1NC(=O)[C@H](CCCN=C(N)N)NC(=O)[C@H](Cc2ccc(O)cc2)NC(=O)[C@@H](NC(=O)[C@H](Cc2ccc3ccccc3c2)NC(=O)[C@H](CCCN=C(N)N)NC(=O)[C@@H](N)CCCN=C(N)N)CSSC[C@@H](C(=O)N[C@@H](CCCNC(N)=O)C(=O)O)NC(=O)[C@H](CCCNC(N)=O)NC(=O)[C@H](CCCN=C(N)N)NC(=O)[C@H](Cc2ccc(O)cc2)NC(=O)[C@@H]2CCCN2C(=O)[C@@H](CCCCN)NC1=O | > 40 µM | 180 µM | >220 | 200
12 | C[C@@H]1NC(=O)[C@@H](NC(=O)[C@H](Cc2ccc3ccccc3c2)NC(=O)[C@H](CCCN=C(N)N)NC(=O)[C@@H](N)CCCN=C(N)N)CSSC[C@@H](C(=O)N[C@@H](CCCN=C(N)N)C(=O)O)NC(=O)[C@H](CCCNC(N)=O)NC(=O)[C@H](CCCN=C(N)N)NC(=O)[C@H](Cc2ccc(O)cc2)NC(=O)[C@@H]2CCCN2C(=O)[C@@H](CCCCN)NC(=O)[C@H](CCCCN)NC(=O)[C@H](CCCN=C(N)N)NC1=O | > 80 µM | – | >230 | –
13 | C[C@@H]1NC(=O)[C@@H]2CCCN2C(=O)[C@@H](CCCCN)NC(=O)[C@H](CCCCN)NC(=O)[C@H](CCCN=C(N)N)NC(=O)[C@H](Cc2ccc(O)cc2)NC(=O)[C@@H](NC(=O)[C@H](Cc2ccc3ccccc3c2)NC(=O)[C@H](CCCN=C(N)N)NC(=O)[C@@H](N)CCCN=C(N)N)CSSC[C@@H](C(=O)N[C@@H](CCCN=C(N)N)C(=O)O)NC(=O)[C@H](CCCNC(N)=O)NC(=O)[C@H](CCCN=C(N)N)NC1=O | > 80 µM | – | >4500 | –
14 | C[C@@H]1NC(=O)[C@@H](CCCCN)NC(=O)[C@H](CCCCN)NC(=O)[C@H](CCCN=C(N)N)NC(=O)[C@H](Cc2ccc(O)cc2)NC(=O)[C@@H](NC(=O)[C@H](Cc2ccc3ccccc3c2)NC(=O)[C@H](CCCN=C(N)N)NC(=O)[C@@H](N)CCCN=C(N)N)CSSC[C@@H](C(=O)N[C@@H](CCCN=C(N)N)C(=O)O)NC(=O)[C@H](CCCNC(N)=O)NC(=O)[C@H](CCCN=C(N)N)NC(=O)[C@H](Cc2ccc(O)cc2)NC1=O (H-RR[2Nal]CYRK[dK]AYR[Cit]CR-OH; disulfide 4-13) | > 80 µM | – | >4700 | –
15 | NCCCC[C@@H]1NC(=O)[C@H](CCCN=C(N)N)NC(=O)[C@H](Cc2ccc(O)cc2)NC(=O)[C@@H](NC(=O)[C@H](Cc2c[nH]c3ccccc23)NC(=O)[C@H](CCCN=C(N)N)NC(=O)[C@@H](N)CCCN=C(N)N)CSSC[C@@H](C(=O)N[C@@H](CCCN=C(N)N)C(=O)O)NC(=O)[C@H](CCCNC(N)=O)NC(=O)[C@H](CCCN=C(N)N)NC(=O)[C@H](Cc2ccc(O)cc2)NC(=O)[C@@H]2CCCN2C(=O)[C@@H](CCCCN)NC1=O | > 1 µM | 190 µM | >>120 | 23000
16 | C[C@H](NC(=O)[C@@H](N)CCCN=C(N)N)C(=O)N[C@@H](Cc1ccc2ccccc2c1)C(=O)N[C@H]1CSSC[C@@H](C(=O)N[C@@H](CCCN=C(N)N)C(=O)O)NC(=O)[C@H](CCCNC(N)=O)NC(=O)[C@H](CCCN=C(N)N)NC(=O)[C@H](Cc2ccc(O)cc2)NC(=O)[C@@H]2CCCN2C(=O)[C@@H](CCCCN)NC(=O)[C@H](CCCCN)NC(=O)[C@H](CCCN=C(N)N)NC(=O)[C@H](Cc2ccc(O)cc2)NC1=O | > 80 µM | – | >64 | –
17 | NCCCC[C@@H]1NC(=O)[C@H](CCCNC(N)=O)NC(=O)[C@H](Cc2ccc(O)cc2)NC(=O)[C@@H](NC(=O)[C@H](Cc2ccc3ccccc3c2)NC(=O)[C@H](CCCN=C(N)N)NC(=O)[C@@H](N)CCCN=C(N)N)CSSC[C@@H](C(=O)N[C@@H](CCCN=C(N)N)C(=O)O)NC(=O)[C@H](CCCNC(N)=O)NC(=O)[C@H](CCCN=C(N)N)NC(=O)[C@H](Cc2ccc(O)cc2)NC(=O)[C@@H]2CCCN2C(=O)[C@@H](CCCCN)NC1=O | > 80 µM | 310 µM | >29000 | 160000
18 | C[C@@H]1NC(=O)[C@H](CCCN=C(N)N)NC(=O)[C@H](Cc2ccc(O)cc2)NC(=O)[C@@H]2CCCN2C(=O)[C@@H](CCCCN)NC(=O)[C@H](CCCCN)NC(=O)[C@H](CCCN=C(N)N)NC(=O)[C@H](Cc2ccc(O)cc2)NC(=O)[C@@H](NC(=O)[C@H](Cc2ccc3ccccc3c2)NC(=O)[C@H](CCCN=C(N)N)NC(=O)[C@@H](N)CCCN=C(N)N)CSSC[C@@H](C(=O)N[C@@H](CCCN=C(N)N)C(=O)O)NC1=O | 55 µM | – | 3300 | –
